The target of data set [1] is T1, full-length recombinant rat vitamin D receptor (Rattus norvegicus, UniProt P13053).
T1 construct: Full-length recombinant rat receptor was expressed in E. coli; histidine tag (C); made in house; host or cells: E. coli BL21(DE3) Codon Plus RIL
T1 sequence (P13053 1-423): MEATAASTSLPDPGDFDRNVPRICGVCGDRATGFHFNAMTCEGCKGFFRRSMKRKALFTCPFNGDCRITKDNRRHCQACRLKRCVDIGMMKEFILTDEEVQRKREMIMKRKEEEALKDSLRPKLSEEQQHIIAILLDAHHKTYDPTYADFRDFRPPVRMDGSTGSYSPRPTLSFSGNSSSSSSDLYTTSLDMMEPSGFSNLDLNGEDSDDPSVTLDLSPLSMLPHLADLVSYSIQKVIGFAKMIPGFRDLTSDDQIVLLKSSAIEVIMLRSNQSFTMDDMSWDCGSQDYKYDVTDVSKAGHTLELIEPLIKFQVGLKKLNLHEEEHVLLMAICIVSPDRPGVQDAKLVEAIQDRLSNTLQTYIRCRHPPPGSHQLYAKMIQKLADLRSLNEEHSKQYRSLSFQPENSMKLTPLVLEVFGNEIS
As to the kind of experiment: Vitamin D receptor binding (competition with 3H-1,25(OH)2D3). To be noted: for binding to the vitamin D receptor, compared to 1α,25(OH)2D3: result in words, competition for tritiated hormone binding. How it is done: Full-length recombinant rat receptor was expressed in E. coli BL21(DE3) Codon Plus RIL cells and purified to homogeneity using two different column chromatography systems. The first system was a nickel affinity resin that utilizes the C-terminal histidine tag on this protein. The protein that was eluted from this resin was further purified using ion exchange chromatography (S-Sepharose Fast Flow). Aliquots of the purified protein were quick frozen in liquid nitrogen and stored at −80° C. until use. For use in binding assays, the protein was diluted in TEDK50 (50 mM Tris, 1.5 mM EDTA, pH 7.4, 5 mM DTT, 150 mM KCl) with 0.1% Chaps detergent. The receptor protein and ligand concentration was optimized such that no more than 20% of the added radiolabeled ligand was bound to the receptor.
Unlabeled ligands were dissolved in ethanol and the concentrations determined using UV spectrophotometry (1,25(OH)2D3: molar extinction coefficient=18,200 and λmax=265 nm; Analogs: molar extinction coefficient=42,000 and λmax=252 nm). Radiolabeled ligand (^3H-1,25(OH)2D3, ˜159 Ci/mmole) was added in ethanol at a final concentration of 1 nM.
Radiolabeled and unlabeled ligands were added to 100 mcl of the diluted protein at a final ethanol concentration of ≦10%, mixed and incubated overnight on ice to reach binding equilibrium. The following day, 100 mcl of hydroxylapatite slurry (50%) was added to each tube and mixed at 10-minute intervals for 30 minutes. The hydroxylapaptite was collected by centrifugation and then washed three times with Tris-EDTA buffer (50 mM Tris, 1.5 mM EDTA, pH 7.4) containing 0.5% Titron X-100. After the final wash, the pellets were transferred to scintillation vials containing 4 ml of Biosafe II scintillation cocktail, mixed and placed in a scintillation counter. Total binding was determined from the tubes containing only radiolabeled ligand.

The nature of data set [2]: Bone calcium mobilization (serum calcium on low calcium diet). The class given is in vivo, rat. To be noted: result in words; vitamin D deficient rat model, compared to 1α,25(OH)2D3. How it is done:
(§1) Male, weanling Sprague-Dawley rats were placed on Diet 11 (0.47% Ca) diet+AEK for one week followed by Diet 11 (0.02% Ca)+AEK for 3 weeks. The rats were then switched to a diet containing 0.47% Ca for one week followed by two weeks on a diet containing 0.02% Ca. Dose administration began during the last week on 0.02% calcium diet. Four consecutive ip doses were given approximately 24 hours apart. Twenty-four hours after the last dose, blood was collected from the severed neck and the concentration of serum calcium determined as a measure of bone calcium mobilization. The first 10 cm of the intestine was also collected for intestinal calcium transport analysis using the everted gut sac method.

Data set [3] deals with Human promyelocytic leukemia (HL60) cells. The data set can be described thus: HL-60 differentiation (nitro blue tetrazolium reduction). It is filed as cell-based. To be noted: result in words. The protocol: The study drugs were dissolved in ethanol and the concentrations determined using UV spectrophotometry. Serial dilutions were prepared so that a range of drug concentrations could be tested without changing the final concentration of ethanol (≦0.2%) present in the cell cultures.
Human promyelocytic leukemia (HL60) cells were grown in RPMI-1640 medium containing 10% fetal bovine serum. The cells were incubated at 37° C. in the presence of 5% CO2.
HL60 cells were plated at 1.2×10^5 cells/ml. Eighteen hours after plating, cells in duplicate were treated with drug. Four days later, the cells were harvested and a nitro blue tetrazolium reduction assay was performed (Collins et al., 1979; J. Exp. Med. 149:969-974). The percentage of differentiated cells was determined by counting a total of 200 cells and recording the number that contained intracellular black-blue formazan deposits. Verification of differentiation to monocytic cells was determined by measuring phagocytic activity (data not shown).

For data set [4], the system named is 24-hydroxylase (24Ohase) gene promoter in ROS 17/2.8 (bone) cells. As to the kind of experiment: In vitro transcription assay (luciferase reporter). It is filed as cell-based. The conditions noted are these: result in words. How it is done: Transcription activity was measured in ROS 17/2.8 (bone) cells that were stably transfected with a 24-hydroxylase (24Ohase) gene promoter upstream of a luciferase reporter gene (Arbour et al., 1998). Cells were given a range of doses. Sixteen hours after dosing the cells were harvested and luciferase activities were measured using a luminometer. RLU=relative luciferase units.
(In general: A reporter such as luciferase makes a cellular process visible.)

Another data set deals with SCD-1 mRNA. As to the kind of experiment: Inhibition of SCD-1 mRNA induction in 3T3-L1 cells (RT-PCR). The class given is cell-based, murine. The conditions noted are these: for inhibition of SCD-1 mRNA induction: result in words, MDI-treated 3T3-L1 cells; for inhibition of SCD1 mRNA induction: tested at 1×10^−8.5 M. The text has this:
Chomczynski, P. et al., Anal. […] NO: 4)).

In another data set the test system is 3T3-L1 cells. The data set can be described thus: Inhibition of 3T3-L1 differentiation into mature adipocytes (Oil-Red-O staining). To be noted: for inhibition of differentiation of 3T3-L1 cells into mature adipocytes (Oil-Red-O staining): result in words, MDI-treated cells, staining at day 10; for inhibition of differentiation of MDI-treated 3T3-L1 cells (oil-red-O staining): tested at 1×10^−8.5 M. It is filed as cell-based, murine. The protocol: Various 19-nor vitamin D analogs were or are tested and found to inhibit the differentiation of preadipocytes into mature adipocytes, to reduce body fat, to inhibit an increase in PPARγ, C/EBPα, and/or SCD-1 gene transcription and to be useful in treating and preventing obesity both in vivo and in vitro. The undifferentiated preadipocyte 3T3-L1 subline, a derivative of the original mouse fibroblast cell line, is one of the most accepted models for investigating the adipogenesis process and was used for the analysis. Two days after reaching confluence, 3T3-L1 cells can be induced to differentiate into adipocytes (see Mackall, J. C. et al. J. Biol. Chem., 251(20), 6462-6464 (1976)) with the addition of a cAMP phosphodiesterase inhibitor, dexamethasone (a glucocortoid), and insulin. […] The induction of PPARγ and C/EBPα is required for adipocyte differentiation. […] SCD-1 is an enzyme found in adipocytes that converts saturated fatty acids (C16 and C18) to their monounsaturated forms (C16:1 and C18:1). The deposition of triglyceride can also be detected as early as 3 days, and by the 7th to 14th days post-confluence, greater than 80% of the cells in the monolayer stain positively with Oil-red-O.

Data set [5] is described as follows: Intestinal calcium transport (everted gut sac). It is filed as in vivo. The conditions noted are these: result in words; vitamin D deficient rat model, compared to 1α,25(OH)2D3. The protocol:
as §1

Each structure is given as a SMILES string. Entries after “also recorded” stand apart in the source; their conditions may differ.

With `CCCC[C@H](C)[C@H]1CC[C@H]2/C(=C/C=C3C[C@@H](O)C(C)[C@H](O)C3)CCC[C@]12C` (stereo partly drawn) [2α-methyl-19,26,27-trinor, 2α-methyl-19,26,27-trinor-(20S)-1α-hydroxyvitamin D3], the “binding to the vitamin D receptor, compared to 1α,25(OH)2D3” value (from here on “binding … compared to 1α,25(OH)2D3”) in data set [1] was “bound equally well”. Also, the “bone calcium mobilization activity” value in data set [2] is “very little bone calcium mobilization activity”. For the same molecule, in data set [3], the “differentiation of HL-60 cells, compared to 1α,25(OH)2D3” value (shortened to “differentiation of HL-60 cells”) is on record as “almost as potent”. The “transcriptional activity in bone cells, compared to 1α,25(OH)2D3” value in data set [4] was “similar”.
For `C=C1[C@H](O)C/C(=C/C=C2\CCC[C@]3(C)[C@@H]([C@@H](C)CC)CC[C@@H]23)C[C@@H]1O` [(1β,20S)2MbisP, (20S)-1β-hydroxy-2-methylene-19-nor-bishomo-pregnacalciferol, reference compound], in data set [1], the “binding … compared to 1α,25(OH)2D3” value is listed as “binds poorly, if at all”. The “inhibition of SCD-1 mRNA induction” value in the data set with SCD-1 mRNA (listed as 1-(20S)2-MbisP) was “unable to inhibit”; in the data set with SCD-1 mRNA (listed as (1βOH, 20S)2M-BisP), “ineffective”. For the same molecule, the “inhibition of differentiation of 3T3-L1 cells into mature adipocytes (Oil-Red-O staining)” value is given as “unable to inhibit” in the data set with 3T3-L1 cells (listed as 1-(20S)2-MbisP) and “ineffective” with 3T3-L1 cells (listed as (1βOH, 20S)2M-BisP).
For the molecule `C=C1[C@H](O)CC(=C/C=C2\CCC[C@]3(C)[C@@H](CC)CC[C@@H]23)C[C@H]1O` [2-Mpregna], the “binding … compared to 1α,25(OH)2D3” value in data set [1] is “as or nearly effective as calcitriol”. Moreover, in data set [2], the “bone calcium mobilization activity” value is “little, if any, activity”. For the same molecule, the “intestinal calcium transport activity” value in data set [5] was “little, if any, activity”. The “inhibition of SCD-1 mRNA induction” value in the data set on SCD-1 mRNA is recorded as “nearly as potent as the native hormone”; in the data set with SCD-1 mRNA (listed as 2Mpregna), “still active”. In the data set on SCD-1 mRNA, the “inhibition of SCD1 mRNA induction” value is recorded as “active”. The “inhibition of differentiation of 3T3-L1 cells into mature adipocytes (Oil-Red-O staining)” value is given as “nearly as potent as the native hormone” in the data set on 3T3-L1 cells and “still active” in the data set with 3T3-L1 cells (listed as 2Mpregna). Moreover, in the data set with 3T3-L1 cells, the “inhibition of differentiation of MDI-treated 3T3-L1 cells (oil-red-O staining)” value is “active”.
Turning to `C=C1[C@H](O)CC(=C/C=C2\CCC[C@]3(C)[C@@H]([C@@H](C)CCCC(C)(C)C)CC[C@@H]23)C[C@H]1O` [TMM], the “bone calcium mobilization activity” value in data set [2] is on record as “active”. Further, the “intestinal calcium transport activity” value in data set [5] is reported as “active”. Moreover, in the data set on 3T3-L1 cells, the “inhibition of differentiation of 3T3-L1 cells into mature adipocytes (Oil-Red-O staining)” value is recorded as “inhibit; also recorded: effective”.
Consider `C=C1[C@H](O)CC(=C/C=C2\CCC[C@]3(C)C(=C(C)C)CC[C@@H]23)C[C@H]1O` [VIT-I], for which the “binding … compared to 1α,25(OH)2D3” value in data set [1] is reported as “bound equally well; also recorded: as well as the native hormone”. Further, in data set [2], the “bone calcium mobilization activity” value is given as “very little bone calcium mobilization activity”. Also, in data set [5], the “intestinal calcium transport activity” value is “very little activity; also recorded: less activity”. Further, the “differentiation of HL-60 cells” value in data set [3] is recorded as “almost as potent”. For the same molecule, the “transcriptional activity in bone cells, compared to 1α,25(OH)2D3” value in data set [4] is given as “about the same transcriptional activity”. For the same molecule, in the data set on SCD-1 mRNA, the “inhibition of SCD1 mRNA induction” value is reported as “active”. In addition, in the data set on 3T3-L1 cells, the “inhibition of differentiation of 3T3-L1 cells into mature adipocytes (Oil-Red-O staining)” value is recorded as “has activity” and the “inhibition of differentiation of MDI-treated 3T3-L1 cells (oil-red-O staining)” value is given as “active”.
Take `C=C1[C@H](O)CC(=C/C=C2\CCC[C@]3(C)[C@@H]([C@H](C)/C=C/[C@@H](C)C(C)(C)O)CC[C@@H]23)C[C@H]1O` [(24epi)D2]: the “higher affinity binding to the vitamin D receptor than the native hormone” value in data set [1] (higher affinity than native hormone) is “approximately 0.5 log units”. Moreover, the “bone calcium mobilization activity” value in data set [2] is recorded as “less active”. Also, the “intestinal calcium transport activity” value in data set [5] is “less active”. In addition, the “inhibition of differentiation of 3T3-L1 cells into mature adipocytes (Oil-Red-O staining)” value in the data set on 3T3-L1 cells is on record as “improved; also recorded: active”.
For the molecule `C[C@H](/C=C/[C@H](C)C(C)(C)O)[C@H]1CC[C@H]2/C(=C/C=C3C[C@@H](O)C[C@H](O)C3)CCC[C@]12C` [19-nor-1α,25-dihydroxyvitamin D2, reference compound], in data set [1], the “binding … compared to 1α,25(OH)2D3” value is on record as “as well as the native hormone”. In data set [2], the “bone calcium mobilization activity” value is reported as “very low bone calcium mobilizing activity”. Moreover, the “inhibition of differentiation of 3T3-L1 cells into mature adipocytes (Oil-Red-O staining)” value is listed as “equivalent in potency; also recorded: active” with 3T3-L1 cells and “more active” with 3T3-L1 cells (listed as 19-nor-1α,25-dihydroxyvitamin D2).
Take `C=C1[C@H](O)CC(=C/C=C2\CCC[C@@H]3[C@@H](C(C)C)CC[C@@H]23)C[C@H]1O` [18,19-dinor-2MP, 2-methylene-18,19-dinor-1α-hydroxyhomopregnacalciferol]: the “binding … compared to 1α,25(OH)2D3” value in data set [1] was “bound equally well”. In data set [2], the “bone calcium mobilization activity” value was “very little bone calcium mobilization activity”. In data set [5], the “intestinal calcium transport activity” value is listed as “very little activity”. Also, in data set [3], the “differentiation of HL-60 cells” value is “almost as potent”. Besides, in data set [4], the “transcriptional activity in bone cells, compared to 1α,25(OH)2D3” value is “about the same transcriptional activity”.

These data come from patent US8188064B2, “Vitamin D analogs for obesity prevention and treatment” (Wisconsin Alumni Research Foundation, priority 2003, dated 2012).
